Where a name gives a salt, the structure may show the parent alone.
Assays:
Assay type in all cases: physicochemical
[1] = Hydration study of solid forms by DVS analysis
Protocol: Melting points (m.p.) of the intermediate detomidine free base and hydrochloride of Sample 5 measured in open capillary corresponded with the published literature and the DSC data and are presented in Table 4. In order to evaluate effect of humidity on different forms of detomidine, a hydration study was performed. Samples of detomidine free base and hydrochloride salt were subjected to DVS analysis. These observations are in accordance with the DVS results shown in FIGS. 1 and 2, for detomidine free base and detomidine HCl, respectively.
During the dehydration cycle, the monohydrate began to lose water at RH˜10% and converted into the anhydrate at RH=0%.

[2] = Solubility of solid forms in water (observation)
[3] = Aldehyde impurity assessment: aqueous stock solutions exposed to air, HPLC of RRT = 0.38; conditions: 7.4 wt % detomidine HCl in water; for RRT = 0.38 content at 2 years: exposed to air at room temperature; for Initial RRT = 0.38 content: time zero
Protocol: Therefore, for further identification of the elusive impurity, new HPLC protocols for assaying detomidine HCl were developed. One protocol (“HPLC Protocol A”) comprised using a SunFire C8 column, 100Å, 3.5 μm, 4.6×150 mm column with an initial mobile phase of 70% Ammonium Phosphate buffer solution, pH 7.9 and 30% Acetonitrile, at a flow rate of 1.0 mL/min and UV detection at 220 nm. To remove late eluting peaks, the flush gradient shown in Table 5 was applied after each run. This HPLC protocol allowed for a resolution factor of 3.9 between detomidine and the unidentified impurity. The quantitation level (QL) for impurities and degradation products is 0.025%. The detection level (DL) for impurities and degradation products is 0.01%.
Stock solutions of 7.4 wt % detomidine HCl in water were prepared using material from Table 6, Batch #iv and v and the samples were then kept exposed to air at room temperature for 2 years.

[4] = Oxidation with potassium permanganate in aqueous solution, HPLC of RRT = 0.38; conditions: 3 hours after solution preparation
Protocol: A further sample of material from Table 6, Batch #v was reacted with potassium permanganate in aqueous solution. RRT=0.38 was found in the reaction product at 0.14% at 3 hours after solution preparation.

SMILES: Cc1cccc(Cc2c[nH]cn2)c1C.Cl [Sample 2]
- water level absorbed, cKF ([1]; hydration of the anhydrous form): 7.7%

SMILES: Cc1cccc(Cc2c[nH]cn2)c1C [detomidine HCl monohydrate]
- RH at which the monohydrate began to lose water ([1]; dehydration cycle, DVS): ~10%
- RH at which the monohydrate converted into the anhydrate ([1]; dehydration cycle, DVS): 0%

SMILES: Cc1cccc(Cc2c[nH]cn2)c1C [detomidine hydrochloride]
- solubility in water [2]: soluble

SMILES: Cc1cccc(Cc2c[nH]cn2)c1C [detomidine free base, 4-[(2,3-dimethylphenyl)methyl]-1H-Imidazole]
- solubility in water [2]: insoluble in water
- hygroscopicity ([1]; DVS, 24.4° C. (FIG. 1)): non-hygroscopic
- water absorbed ([1]; at relative humidity (RH)>50%): more than 1%

SMILES: Cc1cccc(Cc2c[nH]cn2)c1C [anhydrous detomidine HCl]
- RH at which the anhydrate absorbs water / transforms completely into the monohydrate ([1]; DVS): 30-50%
- RH at which the anhydrate did not absorb water ([1]; DVS): < 30%

SMILES: Cc1cccc(Cc2cnc[nH]2)c1C.Cl.O [Batch iv]
- RRT = 0.38 content at 2 years ([3]; listed as iv): 1%
- Initial RRT = 0.38 content ([3]; listed as iv): 0.2%

SMILES: Cc1cccc(Cc2cnc[nH]2)c1C.Cl.O [Batch v]
- RRT = 0.38 content at 2 years ([3]; listed as v): 0.02%
- Initial RRT = 0.38 content ([3]; listed as v): not detectable
- RRT=0.38 in the reaction product [4]: 0.14%
